How the values were obtained:
[1] = tested on: Tyrosine-protein kinase ABL1 (Homo sapiens), P00519 [Q252H]; conditions: Compound concentration 1000.0 nM
[2] = biological target: Phosphatidylinositol 4-phosphate 5-kinase type-1 gamma (Homo sapiens) (UniProt O60331); conditions: Compound concentration 1000.0 nM
[3] = biological target: Vasopressin V1a receptor (Homo sapiens) (UniProt P37288); experiment: V1a (h) CEREP ligand profiling; conditions: Compound concentration 10.0 uM
[4] = biological target: T1, Muscarinic acetylcholine receptor M5 (Homo sapiens) (UniProt P08912); experiment: M5 (h) CEREP ligand profiling; conditions: Compound concentration 10.0 uM
T1 sequence (whole entry): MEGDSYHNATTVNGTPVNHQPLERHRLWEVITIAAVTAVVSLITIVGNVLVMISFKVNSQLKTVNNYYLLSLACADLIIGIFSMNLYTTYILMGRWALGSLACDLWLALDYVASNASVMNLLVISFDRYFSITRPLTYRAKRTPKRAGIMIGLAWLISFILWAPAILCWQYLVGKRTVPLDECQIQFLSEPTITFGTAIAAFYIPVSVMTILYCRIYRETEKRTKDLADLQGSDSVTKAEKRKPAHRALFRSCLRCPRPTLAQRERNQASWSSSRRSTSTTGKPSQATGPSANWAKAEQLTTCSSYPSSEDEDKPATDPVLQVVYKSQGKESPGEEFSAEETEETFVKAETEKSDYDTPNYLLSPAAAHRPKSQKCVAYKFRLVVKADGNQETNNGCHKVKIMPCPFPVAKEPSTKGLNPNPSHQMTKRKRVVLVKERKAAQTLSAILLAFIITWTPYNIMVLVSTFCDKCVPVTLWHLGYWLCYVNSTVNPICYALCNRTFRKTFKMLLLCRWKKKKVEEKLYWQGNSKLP

[5] = biological target: 5-hydroxytryptamine receptor 7 (Homo sapiens) (UniProt P34969); experiment: 5-HT7 (h) CEREP ligand profiling; conditions: Compound concentration 10.0 uM
[6] = biological target: Melatonin receptor type 1A (Homo sapiens) (UniProt P48039); experiment: ML1 CEREP ligand profiling; conditions: Compound concentration 10.0 uM
[7] = biological target: 1-phosphatidylinositol 3-phosphate 5-kinase (Homo sapiens) (UniProt Q9Y2I7); conditions: Compound concentration 1000.0 nM
[8] = biological target: Casein kinase I isoform gamma-1 (Homo sapiens) (UniProt Q9HCP0); conditions: Compound concentration 1000.0 nM
[9] = biological target: NUAK family SNF1-like kinase 1 (Homo sapiens) (UniProt O60285); conditions: Compound concentration 1000.0 nM
[10] = biological target: Prostaglandin F2-alpha receptor (Homo sapiens, UniProt P43088); experiment: Binding assay (PTGFR)
[11] = biological target: cGMP-specific 3',5'-cyclic phosphodiesterase (Homo sapiens) (UniProt O76074); experiment: PDE5 (h) CEREP ligand profiling; conditions: Compound concentration 10.0 uM
[12] = biological target: 5-hydroxytryptamine receptor 7 (Homo sapiens) (UniProt P34969); conditions: Compound concentration 10.0 uM
[13] = biological target: Cyclin-dependent kinase-like 3 (Homo sapiens) (UniProt Q8IVW4); conditions: Compound concentration 1000.0 nM
[14] = biological target: T2, Alpha-2C adrenergic receptor (Homo sapiens) (UniProt P18825); experiment: alpha 2C (h) CEREP ligand profiling; conditions: Compound concentration 10.0 uM
T2 sequence (whole entry): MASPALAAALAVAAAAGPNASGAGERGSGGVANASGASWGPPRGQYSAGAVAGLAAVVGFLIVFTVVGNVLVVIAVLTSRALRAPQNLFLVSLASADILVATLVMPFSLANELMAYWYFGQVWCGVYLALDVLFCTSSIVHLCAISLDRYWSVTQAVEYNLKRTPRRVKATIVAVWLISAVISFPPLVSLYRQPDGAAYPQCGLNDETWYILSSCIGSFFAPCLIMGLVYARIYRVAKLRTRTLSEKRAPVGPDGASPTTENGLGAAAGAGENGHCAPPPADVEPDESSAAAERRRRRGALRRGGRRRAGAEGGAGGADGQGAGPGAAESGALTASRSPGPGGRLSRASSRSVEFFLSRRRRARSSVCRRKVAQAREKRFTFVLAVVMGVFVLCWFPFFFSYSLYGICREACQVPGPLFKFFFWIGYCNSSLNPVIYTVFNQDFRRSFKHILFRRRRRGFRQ

[15] = biological target: Non-receptor tyrosine-protein kinase TYK2 (Homo sapiens) (UniProt P29597); conditions: Compound concentration 1000.0 nM
[16] = biological target: Adenosine receptor A3 (Homo sapiens) (UniProt P0DMS8); experiment: A3 (h) CEREP ligand profiling; conditions: Compound concentration 10.0 uM
[17] = biological target: T3, 5-hydroxytryptamine receptor 2C (Homo sapiens) (UniProt P28335); experiment: 5-HT2C (h) CEREP ligand profiling; conditions: Compound concentration 10.0 uM
T3 sequence (whole entry): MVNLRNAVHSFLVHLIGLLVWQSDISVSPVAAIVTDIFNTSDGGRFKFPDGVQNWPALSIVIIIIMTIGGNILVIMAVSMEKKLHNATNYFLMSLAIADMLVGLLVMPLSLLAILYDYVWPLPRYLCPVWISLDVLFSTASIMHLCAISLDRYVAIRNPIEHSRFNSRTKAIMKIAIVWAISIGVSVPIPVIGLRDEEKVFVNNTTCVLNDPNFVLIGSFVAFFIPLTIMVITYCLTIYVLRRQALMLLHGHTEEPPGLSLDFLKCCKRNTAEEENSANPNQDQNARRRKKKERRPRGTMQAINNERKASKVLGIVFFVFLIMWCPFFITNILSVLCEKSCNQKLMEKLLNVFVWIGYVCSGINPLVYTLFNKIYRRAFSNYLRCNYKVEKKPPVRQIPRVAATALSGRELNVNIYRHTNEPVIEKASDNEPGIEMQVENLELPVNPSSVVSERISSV

[18] = biological target: Type-1 angiotensin II receptor (Homo sapiens) (UniProt P30556); experiment: AT1 (h) CEREP ligand profiling; conditions: Compound concentration 10.0 uM
[19] = biological target: T4, Muscarinic acetylcholine receptor M1 (Homo sapiens) (UniProt P11229); experiment: M1 (h) CEREP ligand profiling; conditions: Compound concentration 10.0 uM
T4 sequence (whole entry): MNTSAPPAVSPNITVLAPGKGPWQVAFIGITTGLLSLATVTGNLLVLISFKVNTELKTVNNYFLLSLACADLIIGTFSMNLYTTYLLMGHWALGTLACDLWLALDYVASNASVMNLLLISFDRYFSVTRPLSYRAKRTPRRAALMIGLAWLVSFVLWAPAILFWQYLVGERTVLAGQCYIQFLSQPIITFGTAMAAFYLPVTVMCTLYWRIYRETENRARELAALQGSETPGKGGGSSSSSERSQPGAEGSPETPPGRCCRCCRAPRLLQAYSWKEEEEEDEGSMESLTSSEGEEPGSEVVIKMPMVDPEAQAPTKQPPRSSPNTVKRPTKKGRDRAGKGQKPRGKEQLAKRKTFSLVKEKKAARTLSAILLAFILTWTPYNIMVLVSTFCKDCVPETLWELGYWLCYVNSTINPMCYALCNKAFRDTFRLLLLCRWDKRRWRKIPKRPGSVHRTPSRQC

[20] = biological target: Sodium-dependent dopamine transporter (Homo sapiens) (UniProt Q01959); conditions: Compound concentration 10.0 uM
Chain of Sodium-dependent dopamine transporter (Homo sapiens) (Q01959 whole entry): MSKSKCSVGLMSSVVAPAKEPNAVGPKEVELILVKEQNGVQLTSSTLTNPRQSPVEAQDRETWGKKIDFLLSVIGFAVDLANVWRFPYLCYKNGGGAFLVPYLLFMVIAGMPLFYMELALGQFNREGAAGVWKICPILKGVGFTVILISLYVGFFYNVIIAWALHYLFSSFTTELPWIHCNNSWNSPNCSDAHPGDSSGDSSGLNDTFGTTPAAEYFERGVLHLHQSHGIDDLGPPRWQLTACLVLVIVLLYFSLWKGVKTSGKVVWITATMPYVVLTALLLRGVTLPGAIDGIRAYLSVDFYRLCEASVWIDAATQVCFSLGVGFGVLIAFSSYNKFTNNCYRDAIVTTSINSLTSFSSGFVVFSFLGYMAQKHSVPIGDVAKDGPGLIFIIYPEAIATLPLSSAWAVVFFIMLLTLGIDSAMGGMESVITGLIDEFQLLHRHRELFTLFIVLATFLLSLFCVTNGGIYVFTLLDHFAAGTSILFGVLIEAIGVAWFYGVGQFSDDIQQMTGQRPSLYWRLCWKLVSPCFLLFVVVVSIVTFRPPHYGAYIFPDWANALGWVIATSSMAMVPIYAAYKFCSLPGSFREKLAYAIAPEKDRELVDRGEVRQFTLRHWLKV

Chain of 5-hydroxytryptamine receptor 7 (Homo sapiens) (P34969 whole entry): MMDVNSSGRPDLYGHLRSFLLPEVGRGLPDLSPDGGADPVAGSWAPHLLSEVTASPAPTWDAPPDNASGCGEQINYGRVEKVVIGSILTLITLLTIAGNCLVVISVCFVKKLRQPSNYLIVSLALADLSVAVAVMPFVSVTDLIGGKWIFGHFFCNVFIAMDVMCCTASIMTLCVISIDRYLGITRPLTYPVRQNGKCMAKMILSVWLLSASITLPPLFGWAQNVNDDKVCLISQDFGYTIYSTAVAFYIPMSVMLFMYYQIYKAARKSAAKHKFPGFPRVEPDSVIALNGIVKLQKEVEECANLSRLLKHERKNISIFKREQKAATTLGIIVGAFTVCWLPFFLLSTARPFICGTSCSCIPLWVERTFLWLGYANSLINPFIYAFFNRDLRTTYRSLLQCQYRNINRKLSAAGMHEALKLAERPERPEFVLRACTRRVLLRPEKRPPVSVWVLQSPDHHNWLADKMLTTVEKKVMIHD
Chain of Type-1 angiotensin II receptor (Homo sapiens) (P30556 whole entry): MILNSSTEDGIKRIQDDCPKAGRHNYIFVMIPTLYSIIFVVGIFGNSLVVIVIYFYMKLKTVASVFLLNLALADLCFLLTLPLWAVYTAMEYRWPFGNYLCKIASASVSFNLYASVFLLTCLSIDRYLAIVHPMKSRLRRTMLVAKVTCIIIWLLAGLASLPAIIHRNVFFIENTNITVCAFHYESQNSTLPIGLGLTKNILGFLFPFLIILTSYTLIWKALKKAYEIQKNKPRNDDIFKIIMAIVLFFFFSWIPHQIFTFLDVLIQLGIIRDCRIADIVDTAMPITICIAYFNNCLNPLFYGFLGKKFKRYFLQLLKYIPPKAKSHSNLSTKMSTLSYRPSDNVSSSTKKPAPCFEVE
Chain of Cyclin-dependent kinase-like 3 (Homo sapiens) (Q8IVW4 whole entry, looked up): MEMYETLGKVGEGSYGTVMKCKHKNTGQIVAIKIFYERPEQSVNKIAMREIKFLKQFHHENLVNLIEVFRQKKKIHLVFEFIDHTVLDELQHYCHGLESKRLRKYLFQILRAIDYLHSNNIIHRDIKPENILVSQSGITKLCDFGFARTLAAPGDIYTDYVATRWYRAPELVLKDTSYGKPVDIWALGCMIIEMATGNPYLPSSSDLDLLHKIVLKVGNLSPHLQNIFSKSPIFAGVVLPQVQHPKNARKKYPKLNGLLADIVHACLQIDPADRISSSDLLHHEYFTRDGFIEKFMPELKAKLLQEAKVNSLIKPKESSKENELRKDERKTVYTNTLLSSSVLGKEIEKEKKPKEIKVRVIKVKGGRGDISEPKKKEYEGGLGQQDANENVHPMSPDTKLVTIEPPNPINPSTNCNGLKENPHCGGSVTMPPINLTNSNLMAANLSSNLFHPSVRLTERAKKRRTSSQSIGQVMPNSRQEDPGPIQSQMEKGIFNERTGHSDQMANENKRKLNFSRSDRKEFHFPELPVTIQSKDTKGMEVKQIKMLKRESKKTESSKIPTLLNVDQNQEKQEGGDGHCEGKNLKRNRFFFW
Chain of Vasopressin V1a receptor (Homo sapiens) (P37288 whole entry, looked up): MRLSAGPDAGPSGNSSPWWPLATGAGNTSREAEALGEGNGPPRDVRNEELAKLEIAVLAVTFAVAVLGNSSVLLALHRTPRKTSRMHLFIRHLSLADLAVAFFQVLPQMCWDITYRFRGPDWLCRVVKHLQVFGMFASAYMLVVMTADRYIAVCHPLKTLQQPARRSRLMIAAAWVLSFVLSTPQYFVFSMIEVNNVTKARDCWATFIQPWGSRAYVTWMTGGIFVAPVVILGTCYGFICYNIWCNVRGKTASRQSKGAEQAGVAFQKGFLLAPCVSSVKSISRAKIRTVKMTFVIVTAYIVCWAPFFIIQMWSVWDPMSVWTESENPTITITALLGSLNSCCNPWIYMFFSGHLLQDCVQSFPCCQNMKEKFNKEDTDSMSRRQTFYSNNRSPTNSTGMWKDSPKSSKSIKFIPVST
Chain of Casein kinase I isoform gamma-1 (Homo sapiens) (Q9HCP0 whole entry, looked up, canonical isoform): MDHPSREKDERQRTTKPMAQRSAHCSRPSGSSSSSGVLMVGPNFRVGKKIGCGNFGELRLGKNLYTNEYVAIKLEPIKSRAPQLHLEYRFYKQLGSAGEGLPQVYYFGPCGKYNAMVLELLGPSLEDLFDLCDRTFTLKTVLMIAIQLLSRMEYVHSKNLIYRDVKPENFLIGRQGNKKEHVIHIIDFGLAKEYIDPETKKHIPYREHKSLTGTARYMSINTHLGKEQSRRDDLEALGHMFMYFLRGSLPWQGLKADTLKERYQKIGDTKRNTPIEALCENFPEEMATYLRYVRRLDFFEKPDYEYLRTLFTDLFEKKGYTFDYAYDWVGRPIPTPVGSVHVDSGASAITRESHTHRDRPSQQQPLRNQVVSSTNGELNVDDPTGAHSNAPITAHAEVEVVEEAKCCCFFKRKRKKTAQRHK
Chain of Phosphatidylinositol 4-phosphate 5-kinase type-1 gamma (Homo sapiens) (O60331 whole entry): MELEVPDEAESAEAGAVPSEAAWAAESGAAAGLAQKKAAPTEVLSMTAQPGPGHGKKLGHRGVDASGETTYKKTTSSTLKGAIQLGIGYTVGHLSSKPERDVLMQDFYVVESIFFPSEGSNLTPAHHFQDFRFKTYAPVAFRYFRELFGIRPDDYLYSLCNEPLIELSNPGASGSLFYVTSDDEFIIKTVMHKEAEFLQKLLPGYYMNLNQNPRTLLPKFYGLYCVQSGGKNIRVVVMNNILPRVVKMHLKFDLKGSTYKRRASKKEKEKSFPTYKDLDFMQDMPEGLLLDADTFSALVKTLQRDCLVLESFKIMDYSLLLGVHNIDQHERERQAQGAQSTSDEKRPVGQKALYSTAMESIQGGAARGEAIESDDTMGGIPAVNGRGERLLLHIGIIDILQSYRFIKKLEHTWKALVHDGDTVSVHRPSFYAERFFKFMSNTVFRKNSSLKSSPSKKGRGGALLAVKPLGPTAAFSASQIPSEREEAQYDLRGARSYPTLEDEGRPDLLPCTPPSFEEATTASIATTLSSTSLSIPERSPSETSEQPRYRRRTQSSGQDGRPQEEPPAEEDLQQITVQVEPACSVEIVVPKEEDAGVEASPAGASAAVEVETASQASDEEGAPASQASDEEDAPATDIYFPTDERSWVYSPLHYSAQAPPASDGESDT
Chain of NUAK family SNF1-like kinase 1 (Homo sapiens) (O60285 whole entry): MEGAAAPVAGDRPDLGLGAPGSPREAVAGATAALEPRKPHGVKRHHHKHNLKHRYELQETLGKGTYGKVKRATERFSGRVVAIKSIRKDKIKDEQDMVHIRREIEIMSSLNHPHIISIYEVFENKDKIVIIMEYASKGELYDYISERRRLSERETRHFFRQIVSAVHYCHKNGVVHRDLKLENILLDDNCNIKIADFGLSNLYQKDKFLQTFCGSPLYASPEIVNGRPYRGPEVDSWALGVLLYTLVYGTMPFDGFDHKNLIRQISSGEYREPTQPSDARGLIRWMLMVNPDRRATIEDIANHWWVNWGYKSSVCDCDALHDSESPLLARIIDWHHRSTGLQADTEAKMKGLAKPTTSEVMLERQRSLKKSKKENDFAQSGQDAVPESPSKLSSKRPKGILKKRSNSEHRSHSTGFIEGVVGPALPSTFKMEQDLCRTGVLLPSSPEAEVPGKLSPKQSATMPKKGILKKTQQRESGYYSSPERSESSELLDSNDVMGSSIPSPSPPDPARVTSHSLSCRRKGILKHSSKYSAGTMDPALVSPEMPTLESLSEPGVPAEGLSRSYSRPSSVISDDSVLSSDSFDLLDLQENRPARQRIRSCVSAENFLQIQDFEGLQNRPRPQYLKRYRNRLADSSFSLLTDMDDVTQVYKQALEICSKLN
Chain of Melatonin receptor type 1A (Homo sapiens) (P48039 whole entry, looked up): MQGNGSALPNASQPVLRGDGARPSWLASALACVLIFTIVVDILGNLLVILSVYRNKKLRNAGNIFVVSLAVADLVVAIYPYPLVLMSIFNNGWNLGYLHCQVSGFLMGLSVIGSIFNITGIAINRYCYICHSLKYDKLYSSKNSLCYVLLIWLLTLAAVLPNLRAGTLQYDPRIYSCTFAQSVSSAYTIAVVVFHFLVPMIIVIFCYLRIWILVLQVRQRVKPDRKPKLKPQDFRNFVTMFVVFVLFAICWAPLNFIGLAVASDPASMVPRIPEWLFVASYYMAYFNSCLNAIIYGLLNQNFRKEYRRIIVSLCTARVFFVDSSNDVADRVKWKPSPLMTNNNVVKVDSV
Chain of Prostaglandin F2-alpha receptor (P43088 whole entry): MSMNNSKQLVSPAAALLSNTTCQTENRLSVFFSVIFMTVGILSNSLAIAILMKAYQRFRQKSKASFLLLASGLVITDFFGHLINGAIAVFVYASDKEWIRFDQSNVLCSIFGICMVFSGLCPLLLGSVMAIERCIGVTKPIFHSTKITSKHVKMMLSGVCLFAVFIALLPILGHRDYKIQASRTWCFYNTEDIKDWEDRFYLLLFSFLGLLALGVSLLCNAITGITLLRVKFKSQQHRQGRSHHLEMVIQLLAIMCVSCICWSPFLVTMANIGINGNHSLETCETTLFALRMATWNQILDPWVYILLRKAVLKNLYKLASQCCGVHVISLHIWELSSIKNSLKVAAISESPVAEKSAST

Structure (SMILES) | residual activity [1] [%] | residual activity [2] [%] | inhibition [3] [%] | inhibition [4] [%] | inhibition [5] [%] | inhibition [6] [%] | residual activity [7] [%] | residual activity [8] [%] | residual activity [9] [%] | Ki [10] | inhibition [11] [%] | inhibition [12] [%] | residual activity [13] [%] | inhibition [14] [%] | residual activity [15] [%] | inhibition [16] [%] | inhibition [17] [%] | inhibition [18] [%] | inhibition [19] [%] | inhibition [20] [%]
COc1ccc2cc(OCC3(C(=O)O)CN(C(=O)c4ccc(F)cc4)C3)ccc2c1 [PF-04418948] | 90 | 84 | -3 | 1 | -2 | -3 | 91 | 94 | 94 | > 10 µM (not active) | 6 | -9.26 | 89 | 4 | 89 | -10 | 8 | 1 | 9 | –
O=C(c1ccc(F)cc1)N1CC(COc2ccc(Br)cc2)(C(=O)O)C1 [PF-04475866] | – | – | – | – | – | – | – | – | – | – | – | – | – | – | – | – | – | – | – | 6.07
